# Results from ChEMBL document CHEMBL1159265, “Bis(sulfato)-cyclosiphonodictyol A, a new disulfated sesquiterpene-hydroquinone from a deep water collection of the Marine sponge Siphonodictyon coralliphagum” (J Nat Prod, 1995).
# pIC50: −log10 of the molar value.
# Biological target: Leukotriene B4 receptor 1 (Homo sapiens, UniProt Q15722)
# Assay: Displacement of [3H]LTB4 from LTB4 receptor in human neutrophils
# Sequence of Leukotriene B4 receptor 1 (Q15722 whole entry): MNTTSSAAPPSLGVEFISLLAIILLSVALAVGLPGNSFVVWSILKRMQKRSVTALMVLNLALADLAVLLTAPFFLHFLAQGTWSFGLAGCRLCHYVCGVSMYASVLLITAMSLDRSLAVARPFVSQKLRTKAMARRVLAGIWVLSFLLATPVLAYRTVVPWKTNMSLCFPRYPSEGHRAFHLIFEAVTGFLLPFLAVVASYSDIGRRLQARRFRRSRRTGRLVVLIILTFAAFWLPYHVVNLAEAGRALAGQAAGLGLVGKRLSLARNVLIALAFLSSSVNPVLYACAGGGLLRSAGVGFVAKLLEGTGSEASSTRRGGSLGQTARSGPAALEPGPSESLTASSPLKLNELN
compound,measurement,value
CC1(C)CCC[C@]2(C)[C@H]3Cc4c(OS(=O)(=O)O)ccc(OS(=O)(=O)O)c4CO[C@]3(C)CC[C@@H]12,pIC50,4.35
